Laboratory results as given in patent US12559470B2, “FGFR inhibitors and uses thereof” (University of Southern California, priority 2018, dated 2026).

Biological target: FGFR2 (Homo sapiens, UniProt P21802)
Experiment: In vitro inhibitory assay (IC50) against FGFR2
Assay type: biochemical
Method: The efficacy of the compounds to inhibit the kinase activity of FGFRs was measured by the determination of the IC50 value.
The results are listed in Table 4 expressed as IC50 values (the concentration of compound at which 50% of the enzyme activity is inhibited).

Chain of FGFR2 (P21802 22-821): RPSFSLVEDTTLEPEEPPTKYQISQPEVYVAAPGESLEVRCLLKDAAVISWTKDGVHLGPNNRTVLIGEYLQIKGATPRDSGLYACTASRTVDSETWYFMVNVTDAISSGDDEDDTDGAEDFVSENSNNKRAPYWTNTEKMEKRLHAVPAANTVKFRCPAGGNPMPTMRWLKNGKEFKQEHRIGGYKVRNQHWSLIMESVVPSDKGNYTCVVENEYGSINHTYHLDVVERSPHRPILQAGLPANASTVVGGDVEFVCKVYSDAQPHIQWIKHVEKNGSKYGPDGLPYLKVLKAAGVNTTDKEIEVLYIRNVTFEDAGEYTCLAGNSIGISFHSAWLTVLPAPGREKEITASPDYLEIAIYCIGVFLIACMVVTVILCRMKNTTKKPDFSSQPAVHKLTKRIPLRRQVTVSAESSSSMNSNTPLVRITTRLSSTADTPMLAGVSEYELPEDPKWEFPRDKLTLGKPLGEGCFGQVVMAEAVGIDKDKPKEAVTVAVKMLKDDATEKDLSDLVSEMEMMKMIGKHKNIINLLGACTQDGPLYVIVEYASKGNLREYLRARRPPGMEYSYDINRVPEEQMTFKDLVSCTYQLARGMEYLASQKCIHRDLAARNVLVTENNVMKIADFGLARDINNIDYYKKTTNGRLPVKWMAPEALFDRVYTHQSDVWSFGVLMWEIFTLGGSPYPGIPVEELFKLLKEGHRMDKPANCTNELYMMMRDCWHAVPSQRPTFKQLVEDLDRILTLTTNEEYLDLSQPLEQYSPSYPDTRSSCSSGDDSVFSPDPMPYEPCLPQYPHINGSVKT

For `CCN1CCN(c2ccc(Nc3cc(-c4cccnc4Nc4c(Cl)c(OC)cc(OC)c4Cl)ncn3)cc2)CC1` [Compound 1, 6-(2-((2,6-dichloro-3,5-dimethoxyphenyl)amino)pyridin-3-yl)-N-(4-(4-ethylpiperazin-1-yl)phenyl)pyrimidin-4-amine], the IC50 was 6 nM.
